According to PubChem BioAssay (NCI):
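Where inhibition never reached the appropriate level, the endpoint shown equals the highest concentration tested. Otherwise, values were interpolated linearly from a five-concentration, 48-hour dose response in 96-well plates. TGI: total growth inhibition.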

Legend:
Assay in all cases: DTP human tumour cell line panel, 48 h
ACHN renal = test system: ACHN renal
HCT-15 colon = test system: HCT-15 colon
MDA-MB-231 breast = test system: MDA-MB-231 breast
HT29 colon = test system: HT29 colon
SF-268 CNS = test system: SF-268 CNS
NCI-H522 lung = test system: NCI-H522 lung
LOX IMVI melanoma = test system: LOX IMVI melanoma
SK-MEL-2 melanoma = test system: SK-MEL-2 melanoma
IGROV1 ovarian = test system: IGROV1 ovarian
HCC-2998 colon = test system: HCC-2998 colon
RPMI-8226 leukemia = test system: RPMI-8226 leukemia
OVCAR-5 ovarian = test system: OVCAR-5 ovarian
MALME-3M melanoma = test system: MALME-3M melanoma

Structure (SMILES) | TGI (ACHN renal) [µM] | TGI (HCT-15 colon) [µM] | TGI (MDA-MB-231 breast) [µM] | TGI (HT29 colon) [µM] | TGI (SF-268 CNS) [µM] | TGI (NCI-H522 lung) [µM] | TGI (LOX IMVI melanoma) [µM] | TGI (SK-MEL-2 melanoma) [µM] | TGI (IGROV1 ovarian) [µM] | TGI (HCC-2998 colon) [µM] | TGI (RPMI-8226 leukemia) [µM] | TGI (OVCAR-5 ovarian) [µM] | TGI (MALME-3M melanoma) [µM]
O=c1oc2ccccc2c(Nc2ccc3c(c2)Oc2ccccc2O3)c1[N+](=O)[O-] | 32.7 | > 100 | 38.3 | > 100 | 48.4 | 65.5 | > 100 | 34.5 | 48.9 | 62.4 | > 100 | > 100 | 53.3
N#Cc1nc(-c2cccs2)oc1N | > 100 | > 100 | > 100 | > 100 | > 100 | 92 | > 100 | > 100 | > 100 | > 100 | > 100 | > 100 | > 100
C1CCC2C(C1)CCCC2NC1=NCCO1 (configuration not stated) | > 100 | > 100 | > 100 | > 100 | > 100 | > 100 | > 100 | > 100 | > 100 | > 100 | > 100 | > 100 | > 100
CCC1(C(=O)OC(C)(C)C)OC12C(C)CCCC2C (configuration not stated) | 54.2 | > 100 | > 100 | > 100 | > 100 | > 100 | 96.1 | > 100 | > 100 | 45.1 | 49.9 | > 100 | > 100
CCOC(=O)/C=C(\C(=O)OCC)n1cc(C)c(=O)n(Cc2cnnn2CCCCOC(C)=O)c1=O | 4.83 | > 25.2 | 50.2 | 21.3 | 54.1 | 3.33 | 18.9 | 53 | 28.1 | 43.9 | > 26.7 | 39.5 | 3.79
O=c1[nH]nc(Cc2ccc([N+](=O)[O-])cc2)n1CCO | > 100 | > 100 | > 100 | > 100 | > 100 | > 100 | > 100 | > 100 | > 100 | > 100 | > 100 | > 100 | > 100
NP(=O)(OCC1=CC(=O)c2ccccc2C1=O)N(CCBr)CCBr (configuration not stated) | 15.7 | 20.1 | 27.2 | 34.9 | 26.7 | 10.9 | 29.1 | 25.3 | 38.3 | 34.3 | > 67.3 | 45.1 | 4.6
CCC(C#N)NC(=O)NC(C#N)CC (configuration not stated) | > 100 | > 100 | > 100 | > 100 | > 100 | > 100 | > 100 | > 100 | > 100 | > 100 | > 100 | > 100 | > 100
CN(NC(=O)c1cccs1)C1=NCCCN1 | > 100 | > 100 | > 100 | > 100 | > 100 | > 100 | > 100 | > 100 | > 100 | > 100 | > 100 | > 100 | > 100
CC(=O)O[C@H]1CC[C@@]2(C)C(=CC[C@H]3[C@@H]4C[C@H](N5CCCC5)[C@H](OC(C)=O)[C@@]4(C)CC[C@@H]32)C1 | > 100 | > 100 | > 100 | 69.4 | > 100 | > 100 | > 100 | > 100 | > 100 | > 100 | > 100 | > 100 | > 74.3
O=c1c2ncn(COCCCl)c2n(-c2ccccc2)c(=S)n1-c1ccccc1 | > 100 | > 100 | > 100 | > 100 | > 100 | > 100 | > 100 | > 100 | > 100 | > 100 | > 100 | > 100 | > 100
CC(=O)O[C@H]1C#C/C=C\C#CC[C@@H]2C(=O)N[C@@H]12 | 52.2 | > 82 | > 100 | > 100 | > 70.2 | > 100 | > 50.2 | > 100 | > 100 | > 100 | > 78.1 | > 100 | > 100
Cc1ccc([C@H]2CC(=O)C[C@H](c3ccc(C)cc3)C23C(=O)c2ccccc2C3=O)cc1 | > 100 | > 100 | > 100 | > 100 | > 100 | 26.5 | > 100 | > 100 | > 100 | > 100 | > 100 | > 100 | > 100
CC1=NN2C(=N)/C(=C/c3ccco3)C(=O)N=C2S1 | > 100 | > 100 | > 100 | > 100 | > 100 | > 100 | > 100 | > 100 | > 100 | > 100 | > 100 | > 100 | > 100
